In patent US20100267796A1, “THERAPEUTIC AGENT FOR IRRITABLE BOWEL SYNDROME” (KYOWA HAKKO KOGYO CO., LTD., priority 2006, published 2010):

How the values were obtained:
[1] = tested on: adenosine uptake in HEK293 cells; assay: Adenosine uptake inhibitory activity in HEK293 cells ([3H]adenosine uptake); type: cell-based; details: for activity at 0.05 µM: 50 nmol/L compound, n=2; for activity at 0.5 µM: 500 nmol/L compound
Method: A test was conducted according to the method of Leung et al. [Biochemical Pharmacology, Vol. 70, pp. 355-362 (2005)]. HEK293 cells (ATCC, Registration No. CRL-1537) were subcultured in a Dulbecco's modified Eagle's medium (manufactured by Invitrogen Corporation) containing 10% of fatal calf serum in a CO2 incubator using a poly-L-lysine-coated 10-cm dish (manufactured by Asahi Techno Glass Corporation). The cultured cells were seeded in a poly-L-lysine-coated 24-well plate (manufactured by Asahi Techno Glass Corporation) and cultured until the cells become confluent. […] After incubation at room temperature for 15 minutes, 0.2 mL of a Na^+-free buffer containing 100 nmol/L of [^3H] adenosine (manufactured by GE Health Care Bioscience Corporation) and each compound at each of 50 nmol/L and 500 nmol/L was added to each well. After 1 minute, the reaction solution was removed with an aspirator, and the wells were washed twice with 0.5 mL of ice-cooled PBS (phosphate-buffered saline). Then, 0.5 mL of PBS containing 5% Triton X-100 was added to each well, and the cells were scraped with a scraper. The solution in each well was homogenized by passing through a 20 G injection needle ten times and transferred to a scintillation vial containing 4 mL of clear sol (manufactured by Nacalai Tesque Inc.). Further, the wells were washed with 0.5 mL of PBS containing 5% Triton X-100, and the washing solution was added to the same vial. After sufficient agitation, radioactivity was measured using a liquid scintillation counter (Aloka Co., Ltd., LSC-3500). A relative value to 100% of an uptake of a control was indicated by percentage.

[2] = tested on: restraint stress-induced defecation; assay: Action on restraint stress-induced defecation; type: in vivo, male Wistar rats; details: measured 1 hour after stress initiation, rats
Method: An experiment was carried out according to the method of Kishibayashi et al. [Japanese Journal of Pharmacology, Vol. 69, No. 4, pp. 495-502 (1993)]. In the experiment, male Wistar rats aged 6 to 7 weeks (supplied from Charles River Laboratories Japan, Inc.) were used. […] The rats were lightly anesthetized with diethyl ether, and the thoracic trunk and the forelimbs were wrapped with a tape to produce mild stress. One hour after stress initiation, the wet weight of fecal pellets was measured. Each drug solution was orally administered 1 hour before restraint stress. A test compound was suspended at a concentration of 2 mg/mL in an aqueous solution of 0.5 w/v % methyl cellulose 400 cP and orally administered at a volume of 5 mL/kg (at a dose of 10 mg/kg). In a control, an aqueous solution of 0.5 w/v % methyl cellulose 400 cP was administered. Ten rats were used in each group. […] YM060, a serotonin 5-HT3 receptor antagonist [The Journal of Pharmacology and Experimental Therapeutics, Vol. 259, No. 2, pp. 815-819 (1991), Astellas Pharma. Inc., online, internet (URL: […].com/jp/companry/news/2006/pdf/060131.pdf)], which is being applied as a therapeutic agent for irritable bowel syndrome, was administered at a dose of 0.1 mg/kg.

[3] = Homo sapiens, 1 min, [3H]adenosine uptake relative to 100% of control, HEK293 cells
[4] = 10 mg/kg p.o. 1 hour before restraint stress, n=10, control of each sub-table 1.06-1.71 g
[5] = 300 mg/kg p.o. 1 hour before restraint stress

SMILES	activity at 0.05 µM [1, 3] [%]	activity at 0.5 µM [1, 3] [%]	Wet weight of fecal pellets [2, 4] [g]	also measured
COC(=O)C(Cc1ccccc1)Nc1cccc2c1C(=O)c1sccc1CS2(=O)=O (stereo not shown) [Compound 5-8, 5,5-Dioxo-9-{[1-(methoxycarbonyl)-2-phenylethyl]amino}-4,10-dihydrothieno[3,2-c][1]benzothiepin-10-one]	92	69	–	–
O=C(CC(O)(C(F)(F)F)C(F)(F)F)Nc1cccc2c1C(=O)c1sccc1CS2(=O)=O [Compound 1-2]	39	17	0.78 ± 0.25	–
O=C(Nc1cccc2c1C(=O)c1sccc1CS2(=O)=O)c1cc(Cl)ccc1O [Compound 1-7]	74	35	0.59 ± 0.12	–
Cn1cc(C(=O)[C@@H]2CCc3nc[nH]c3C2)c2ccccc21 [YM060, reference compound]	–	–	–	Wet weight of fecal pellets ([2]; 0.1 mg/kg 1 hour before restraint stress, control 1.24 ± 0.23 g): 0.43 ± 0.11 g
CC(O)(C(=O)Nc1ccc(Br)c2c1C(=O)c1sccc1CS2(=O)=O)C(F)(F)F (stereo not shown) [Compound 3-3, 6-Bromo-5,5-dioxo-9-(3,3,3-trifluoro-2-hydroxy-2-methylpropanoylamino)-4,10-dihydrothieno[3,2-c][1]benzothiepin-10-one]	–	–	0.81 ± 0.22	–
CCOC(=O)Nc1cccc2c1C(=O)c1sccc1CS2(=O)=O [Compound 1-6]	89	68	0.31 ± 0.06	–
O=C1c2sccc2CS(=O)(=O)c2cccc(SCc3ccccc3)c21 [Compound 6-1, 9-Benzylthio-5,5-dioxo-4,10-dihydrothieno[3,2-c][1]benzothiepin-10-one]	75	39	–	–
CCOc1cc2nc(N3CCOCC3)nc(N3CCC(n4c(=O)c5cc(C)ccc5n(C)c4=O)CC3)c2cc1OCC [KF24345, reference compound]	–	–	0.48 ± 0.14	–
O=C(Nc1cccc2c1C(=O)c1sccc1CS2(=O)=O)c1ccco1 [Compound 1-8]	79	44	0.66 ± 0.12	–
O=C1c2sccc2CS(=O)(=O)c2cccc(Nc3ccccc3)c21 [Compound 5-1, 5,5-Dioxo-9-phenylamino-4,10-dihydrothieno[3,2-c][1]benzothiepin-10-one]	91	60	0.36 ± 0.16	–
CC(C)(C)C(=O)Nc1cccc2c1C(=O)c1sccc1CS2(=O)=O [Compound 1-5]	90	55	0.97 ± 0.16	–
Cc1cc(C(=O)Nc2cccc3c2C(=O)c2sccc2CS3(=O)=O)[nH]n1 [Compound 1-9, 5,5-Dioxo-9-[(5-methylpyrazol-3-ylcarbonyl)amino]-4,10-dihydrothieno[3,2-c][1]benzothiepin-10-one]	62	26	0.39 ± 0.18	–
O=C1c2sccc2CS(=O)(=O)c2cccc(NC(=O)C(O)C(F)(F)F)c21 (stereo not shown) [Compound 1-11, 5,5-Dioxo-9-(2-hydroxy-3,3,3-trifluoropropanoylamino)-4,10-dihydrothieno[3,2-c][1]benzothiepin-10-one]	82	46	–	–
CC(O)(C(=O)Nc1ccc(Cl)c2c1C(=O)c1sccc1CS2(=O)=O)C(F)(F)F (stereo not shown) [Compound 3-2]	–	–	0.53 ± 0.14	–
CCOC(=O)CNc1cccc2c1C(=O)c1sccc1CS2(=O)=O [Compound 5-5, 5,5-Dioxo-9-ethoxycarbonylmethylamino-4,10-dihydrothieno[3,2-c][1]benzothiepin-10-one]	98	68	–	–
CCC(O)(CC)C(=O)Nc1cccc2c1C(=O)c1sccc1CS2(=O)=O [Compound 1-4, 5,5-Dioxo-9-(2-ethyl-2-hydroxybutanoylamino)-4,10-dihydrothieno[3,2-c][1]benzothiepin-10-one]	73	34	0.44 ± 0.19	–
O=[N+]([O-])c1ccc(CSc2ncnc3c2ncn3C2OC(CO)C(O)C2O)cc1 (stereo not shown) [Nitrobenzylthioinosine, S6-(4-nitrobenzyl)mercaptopurine riboside, reference compound]	–	4	–	adenosine uptake in HEK293 cells (in words) ([1]; 100 nmol/L, concentration at which only ENT-1 is inhibited): almost completely inhibited; activity at 0.1 µM ([1]; Homo sapiens, 1 min, 100 nmol/L compound, [3H]adenosine uptake relative to 100% of control, HEK293 cells): 8%
O=C1c2sccc2CS(=O)(=O)c2cccc(OCc3ccccc3)c21 [Compound 6-2, 9-Benzyloxy-5,5-dioxo-4,10-dihydrothieno[3,2-c][1]benzothiepin-10-one]	94	73	–	–
NC(=O)C1CN(CCCCC(c2ccc(F)cc2)c2ccc(F)cc2)CCN1CC(=O)Nc1c(Cl)cc(N)cc1Cl (stereo not shown) [Draflazine, reference compound]	–	–	–	Wet weight of fecal pellets ([2]; 100 mg/kg p.o. 1 hour before restraint stress, control 1.06 ± 0.11 g): 0.43 ± 0.13 g
COc1ccccc1CNc1cccc2c1C(=O)c1sccc1CS2(=O)=O [Compound 5-4, 5,5-Dioxo-9-(2-methoxybenzylamino)-4,10-dihydrothieno[3,2-c][1]benzothiepin-10-one]	72	42	–	–
Cc1ccc(NC(=O)C(C)(O)C(F)(F)F)c2c1S(=O)(=O)Cc1ccsc1C2=O (stereo not shown) [Compound 3-4]	71	41	0.67 ± 0.19	–
O=C1c2sccc2CS(=O)(=O)c2cccc(NCc3ccccc3)c21 [Compound 5-3, 9-Benzylamino-5,5-dioxo-4,10-dihydrothieno[3,2-c][1]benzothiepin-10-one]	63	30	0.41 ± 0.17	–
CC(=O)C(C)(C)C(=O)Nc1cccc2c1C(=O)c1sccc1CS2(=O)=O [Compound 1-10, 5,5-Dioxo-9-(2,2-dimethyl-3-oxobutanoylamino)-4,0-dihydrothieno[3,2-c][1]benzothiepin-10-one]	94	63	–	–
CC(O)(C(=O)Nc1ccc(F)c2c1C(=O)c1sccc1CS2(=O)=O)C(F)(F)F (stereo not shown) [Compound 3-1]	96	63	0.41 ± 0.16	–
CCOC(=O)C(C)Nc1cccc2c1C(=O)c1sccc1CS2(=O)=O (stereo not shown) [Compound 5-6, 5,5-Dioxo-9-[1-(ethoxycarbonyl)ethylamino]-4,10-dihydrothieno[3,2-c][1]benzothiepin-10-one]	80	50	–	–
OCCN(CCO)c1nc(N2CCCCC2)c2nc(N(CCO)CCO)nc(N3CCCCC3)c2n1 [Dipyridamole, reference compound]	–	–	–	Wet weight of fecal pellets [2, 5]: 0.59 ± 0.15 g
O=C1c2sccc2CS(=O)(=O)c2cccc(Nc3cc(Cl)ccc3O)c21 [Compound 5-2, 9-(5-Chloro-2-hydroxyphenylamino)-5,5-dioxo-4,10-dihydrothieno[3,2-c][1]benzothiepin-10-one]	80	44	0.46 ± 0.18	–
COC(=O)C(CC(C)C)Nc1cccc2c1C(=O)c1sccc1CS2(=O)=O (stereo not shown) [Compound 5-7, 5,5-Dioxo-9-{[1-(methoxycarbonyl)-3-methylbutyl]amino}-4,10-dihydrothieno[3,2-c][1]benzothiepin-10-one]	67	30	–	–
COc1cc(C(=O)OCCCN2CCCN(CCCOC(=O)c3cc(OC)c(OC)c(OC)c3)CC2)cc(OC)c1OC [Dilazep, reference compound]	–	–	–	Wet weight of fecal pellets [2, 5]: 0.84 ± 0.17 g
